Data as given in ChEMBL document CHEMBL3817765, “Doxifluridine-conjugated 2-5A analog shows strong RNase L activation ability and tumor suppressive effect” (Bioorg Med Chem, 2016).
pEC50: −log10 of the molar value. Calls of active or inactive are those of the source. No cut-off for these calls is given here.

Assays:
[1] = target: T1, 2-5A-dependent ribonuclease (Homo sapiens) (UniProt Q05823); test: Ratio of p5'A2'p5'A2'p5'A2'p5'A EC50 to compound EC50 for recombinant human RNase L activity
T1 sequence (whole entry): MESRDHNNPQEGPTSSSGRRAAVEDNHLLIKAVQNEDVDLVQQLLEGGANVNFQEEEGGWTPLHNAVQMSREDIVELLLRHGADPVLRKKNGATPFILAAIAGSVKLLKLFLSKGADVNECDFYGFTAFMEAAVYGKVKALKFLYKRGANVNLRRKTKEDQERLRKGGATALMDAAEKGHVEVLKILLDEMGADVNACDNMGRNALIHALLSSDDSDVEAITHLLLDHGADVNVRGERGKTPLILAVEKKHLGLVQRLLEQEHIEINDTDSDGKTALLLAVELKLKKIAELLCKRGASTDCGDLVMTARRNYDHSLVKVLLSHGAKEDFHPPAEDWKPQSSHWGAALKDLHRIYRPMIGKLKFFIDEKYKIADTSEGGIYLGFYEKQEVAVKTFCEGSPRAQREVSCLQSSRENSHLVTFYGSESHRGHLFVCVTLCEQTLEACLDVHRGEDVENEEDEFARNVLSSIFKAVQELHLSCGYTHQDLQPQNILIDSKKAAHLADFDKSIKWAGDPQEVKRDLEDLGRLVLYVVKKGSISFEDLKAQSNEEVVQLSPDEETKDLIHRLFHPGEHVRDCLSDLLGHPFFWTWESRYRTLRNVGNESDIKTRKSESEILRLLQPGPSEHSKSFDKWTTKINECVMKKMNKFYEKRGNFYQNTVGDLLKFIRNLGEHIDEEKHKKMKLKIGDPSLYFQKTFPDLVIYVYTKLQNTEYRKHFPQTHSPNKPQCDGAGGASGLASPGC

[2] = target: T2, 2-5A-dependent ribonuclease (Homo sapiens, UniProt Q05823); test: Induction of recombinant human RNase L activity expressed in Escherichia coli using F-5'-r(C11U2C7)-3' as substrate by polyacrylamide gel electrophoresis; conditions: for pEC50: read-out: EC50
T2 sequence (Q05823 whole entry): T1 sequence (whole entry)

HeLa [3] = test: Cytotoxicity against human HeLa cells assessed as cell growth inhibition after 6 to 24 hrs by counting chamber analysis; type: functional, cell-based
HeLa [4] = test: Cytotoxicity against human HeLa cells assessed as cell growth inhibition at 0.1 to 1 uM after 6 to 24 hrs by counting chamber analysis; type: functional, cell-based
[5] = Half life of the compound assessed as snake venom phosphodiesterase-mediated compound hydrolysis at 9 uM by HPLC analysis; type: ADME; conditions: serpentes
HeLa [6] = test: Cytotoxicity against human HeLa cells assessed as cell growth at 1 uM after 6 to 24 hrs by counting chamber analysis relative to control; type: functional; conditions: read-out: Activity

For Nc1ncnc2c1ncn2[C@@H]1O[C@H](COP(=O)(O)O[C@@H]2[C@H](O)[C@@H](COP(=O)(O)O[C@@H]3[C@H](O)[C@@H](COP(=O)(O)O[C@@H]4[C@H](O)[C@@H](COP(=O)(O)O)O[C@H]4n4ccc(=O)[nH]c4=O)O[C@H]3n3cnc4c(N)ncnc43)O[C@H]2n2cnc3c(N)ncnc32)[C@@H](O)[C@H]1O, the Ratio EC50 [1] was 0.15 and the pEC50 [2] was 7.08.
With C[C@H]1O[C@@H](n2cc(F)c(=O)[nH]c2=O)[C@H](O)[C@@H]1O the “growth inhibition (GI)” value (HeLa [3]) was “Dose-dependent effect”.
Molecule Cc1nc2c(N)ncnc2n1[C@@H]1O[C@H](COP(=O)(O)O[C@@H]2[C@H](O)[C@@H](COP(=O)(O)O[C@@H]3[C@H](O)[C@@H](COP(=O)(O)O[C@H]4[C@@H](O)[C@H](n5cnc6c(N)ncnc65)O[C@@H]4CO)O[C@H]3n3cnc4c(N)ncnc43)O[C@H]2n2cnc3c(N)ncnc32)[C@@H](O)[C@H]1O has a Ratio EC50 [1] of 0.64 and a pEC50 [2] of 7.69.
Cc1nc2c(N)ncnc2n1[C@@H]1O[C@H](COP(=O)(O)O[C@@H]2[C@H](O)[C@@H](COP(=O)(O)O[C@@H]3[C@H](O)[C@@H](COP(=O)(O)O[C@@H]4[C@H](O)[C@@H](CO)O[C@H]4n4cnc5c(N)ncnc54)O[C@H]3n3cnc4c(N)ncnc43)O[C@H]2n2cnc3c(N)ncnc32)[C@@H](O)[C@H]1O gave a Ratio EC50 [1] of 5.6 and a pEC50 [2] of 8.64.
Work on Cc1nc2c(N)ncnc2n1[C@@H]1O[C@H](COP(=O)(O)O[C@@H]2[C@H](O)[C@@H](COP(=O)(O)O[C@@H]3[C@H](O)[C@@H](COP(=O)(O)O[C@@H]4[C@H](O)[C@@H](COP(=O)(O)O)O[C@H]4n4ccc(=O)[nH]c4=O)O[C@H]3n3cnc4c(N)ncnc43)O[C@H]2n2cnc3c(N)ncnc32)[C@@H](O)[C@H]1O yielded a Ratio EC50 [1] of 4.8 and a pEC50 [2] of 8.57.
Cc1nc2c(N)ncnc2n1[C@@H]1O[C@H](COP(=O)(O)O[C@@H]2[C@H](O)[C@@H](COP(=O)(O)O[C@@H]3[C@H](O)[C@@H](COP(=O)(O)O[C@@H]4[C@H](O)[C@@H](CO)O[C@H]4n4ccc(=O)[nH]c4=O)O[C@H]3n3cnc4c(N)ncnc43)O[C@H]2n2cnc3c(N)ncnc32)[C@@H](O)[C@H]1O showed a Ratio EC50 [1] of 5.4 and a pEC50 [2] of 8.62.
For Nc1ncnc2c1ncn2[C@@H]1O[C@H](COP(=O)(O)O[C@@H]2[C@H](O)[C@@H](COP(=O)(O)O[C@@H]3[C@H](O)[C@@H](COP(=O)(O)O[C@@H]4[C@H](O)[C@@H](CO)O[C@H]4n4cnc5c(N)ncnc54)O[C@H]3n3cnc4c(N)ncnc43)O[C@H]2n2cnc3c(N)ncnc32)[C@@H](O)[C@H]1O, the EC50 [2] was “Not Active”.
In the case of Nc1ncnc2c1ncn2[C@@H]1O[C@H](COP(=O)(O)O[C@@H]2[C@H](O)[C@@H](COP(=O)(O)O[C@@H]3[C@H](O)[C@@H](COP(=O)(O)O[C@@H]4[C@H](O)[C@@H](COP(=O)(O)O)O[C@H]4n4cnc5c(N)ncnc54)O[C@H]3n3cnc4c(N)ncnc43)O[C@H]2n2cnc3c(N)ncnc32)[C@@H](O)[C@H]1O, the “growth inhibition (GI)” value (HeLa [4]) was “inactive”, the half-life at 9 µM [5] was 6.4 min and the pEC50 [2] was 7.89.
For Cc1nc2c(N)ncnc2n1[C@@H]1O[C@H](COP(=O)(O)O[C@@H]2[C@H](O)[C@@H](COP(=O)(O)O[C@@H]3[C@H](O)[C@@H](COP(=O)(O)O[C@@H]4[C@H](O)[C@@H](C)O[C@H]4n4cc(F)c(=O)[nH]c4=O)O[C@H]3n3cnc4c(N)ncnc43)O[C@H]2n2cnc3c(N)ncnc32)[C@@H](O)[C@H]1O, the Ratio EC50 [1] was 28.9, the growth at 1 µM (HeLa [6]) was 25% and the “growth inhibition (GI)” value (HeLa [3]) was “Dose-dependent effect”. The half-life at 9 µM [5] was 9 min and the pEC50 [2] was 9.35.
Cc1nc2c(N)ncnc2n1[C@@H]1O[C@H](COP(=O)(O)O[C@@H]2[C@H](O)[C@@H](COP(=O)(O)O[C@@H]3[C@H](O)[C@@H](COP(=O)(O)O[C@H]4[C@@H](O)[C@H](n5ccc(=O)[nH]c5=O)O[C@@H]4CO)O[C@H]3n3cnc4c(N)ncnc43)O[C@H]2n2cnc3c(N)ncnc32)[C@@H](O)[C@H]1O showed a Ratio EC50 [1] of 0.1 and a pEC50 [2] of 6.87.
